The text below walks through data of patent US8513287B2, “Heterocyclic ring and phosphonoxymethyl group substituted pyridine derivatives and antifungal agent containing same” (Eisai R&D Management Co., Ltd., priority 2007, dated 2013).

Series [1] deals with C. albicans E81022 strain. In words: Experimental systemic candidal infection model in mice. The note with it: for Mean Survival Days: tail vein at 0.5 and 9 hours after infection, observed until 14 days. The class given is in vivo. The protocol:
(1) Preparation of Fungal Inoculant
A standing culture of C. albicans E81022 strain was carried out for 24 hours at 35° C. in sabouraud dextrose agar medium (Difco), and the recovered fungal cells were suspended in sterile physiological saline (Otsuka Pharmaceutical). By counting the fungal number on cytometry plate, the suspension was diluted to 2×10^7 cells/mL with sterilized physiological saline to serve fungal inoculum.
The fungal inoculum was used in an amount of 0.2 mL to inoculate the mice in the tail vein (4×10^6 cells/mouse).
(3) Preparation of Agent Solution, and Treatment
The compound of Example 1 was dissolved in concentrations of 13 mg/mL and 3.25 mg/mL with a 50 mM glycine buffer with a pH of 10 (Wako Pure Chemicals), these solutions were then diluted 10 times with 5% glucose (Otsuka Pharmaceutical). At 0.5 and 9 hours after infection, 0.2 mL of the agent solution was administered into a tail vein of the mice. The agent concentrations were 2.5 and 10 mg/kg (calculated as the active form). The number of animals in one group was 5 animals.
The protective effect was determined by observing life/death until 14 days after infection and calculating the mean survival days. The protective effect on the systemic candidal infection was measured for the compound of Example 1 by the method described in section 2.

For series [2] the following is noted: in vivo, 0.4 mg/kg. The protocol:
(§1) (1) Preparation of Administration Solution
(§2) (2) Administration, and Sampling of Blood and Plasma
Blood was collected from the radial cutaneous vein 0.25, 0.5, 1, 2, 4, and 6 hours after administration using a heparin-treated syringe. The blood samples were put into sampling tubes and stored under ice cooling, they were then centrifuged for 5 minutes at 10,500×g and at 4° C. The plasma thus obtained was accurately divided into 5 μL amounts and stored at −20° C. until they were analyzed.
(§3) (3) Plasma Concentration Measurement Method
Imipramine hydrochloride (Sigma) was dissolved in a mixed solution of acetonitrile and methanol (1:1) so that the concentration would be 0.5 μmol/L, to prepare an internal standard substance solution (IS solution). The plasma was melted, 200 μL of IS solution was then added thereto and mixed, and this was centrifuged (deproteinated) for 10 minutes at 1500×g and at 4° C., the supernatant was then analyzed by LC-MS (Waters).

Series [3] can be described thus: Pharmacokinetic evaluation in mice. The series is classed as in vivo, ICR mice. The settings on record: tail vein, 3 mg/kg, FIG. 15. On the procedure:
as §1, §2
Using five-week-old female ICR mice (Charles River Japan), with the number of mouse in one group being 2 mice, the compound according to the present invention and an active form thereof were administered into the tail vein in a dose of 3 mg/kg. The tail vein was punctured 0.25, 0.5, 1.5, 3, 5, and 8 hours after administration, and blood was collected with a heparin-treated pipette.
as §3

Series [4] in a line: physchem. The settings on record: 25 °C. The protocol:
3-(3-(4-(Pyridin-2-yloxymethyl)-benzyl)-isoxazol-5-yl)-pyridin-2-ylamine described in Reference Example 1, which is the parent compound, and the compound of Example 1 were compared for solubility in a Britton-Robinson buffer (ionic strength: 0.3) at 25° C.

The nature of series [5]: In vitro activity compared with the parent compound. The note with it: ratio to parent compound.

In brackets after ≈: the same amount, converted by molar mass. Read-outs that look alike come from different tables or passages of the source.

As for `Nc1c(-c2cc(Cc3ccc(COc4ccccn4)cc3)no2)ccc[n+]1COP(=O)([O-])O` [Example 1, 2-Amino-1-((phosphonoxy)methyl)-3-(3-((4-((2-pyridinyloxy)methyl)phenyl)methyl)-5-isoxazolyl)-pyridinium], the entries for the “Mean Survival Days” value in series [1] (3.25 mg/kg (calculated as active form: 2.5 mg/kg)) and in series [1] (13 mg/kg (calculated as active form: 10 mg/kg)) were 7.4 days and 12.8 days, respectively. Further, the “protective effect on the systemic candidal infection (survival versus untreated group)” value in series [1] (life/death until 14 days after infection) was “survived for a longer time as compared to the untreated group”. The “plasma concentration of the active form after administration of the compound of Example 1” value in series [2] was “rose quickly”; in series [3], “increased quickly from immediately after administration”. For the same compound, the entries for the “plasma concentration of the compound of Example 1” value in series [2] and in series [3] were “under the detection limit” and “decreased quickly after administration”, respectively. The solubility – broadly, the dissolved amount per volume that the medium holds – in series [4] (pH 5, aqueous buffer) is 1900 µg/mL (≈ 4.06 mM); in series [4] (pH 7, aqueous buffer), 10500 µg/mL (≈ 22.4 mM); in series [4] (pH 8, aqueous buffer), 16400 µg/mL (≈ 35 mM); in series [4] (pH 9, aqueous buffer), more than 21100 µg/mL. Moreover, the “in vitro activity with respect to the parent compound (Reference Example 1)” value in series [5] is 1/100.
Turning to `Nc1ncccc1-c1cc(Cc2ccc(COc3ccccn3)cc2)no1` [Parent compound, 3-(3-(4-(Pyridin-2-yloxymethyl)-benzyl)-isoxazol-5-yl)-pyridin-2-ylamine, reference compound], the solubility in series [4] (Britton-Robinson buffer, pH 5, aqueous buffer) is less than 100 µg/mL; in series [4] (Britton-Robinson buffer, pH 7, aqueous buffer) it was less than 100 µg/mL; in series [4] (Britton-Robinson buffer, pH 8, aqueous buffer) it was less than 100 µg/mL; in series [4] (Britton-Robinson buffer, pH 9, aqueous buffer), less than 100 µg/mL.
